Measurements: PubChem BioAssay AID256 (DTP/NCI, 2004)
Several values for one entry are separate records, joined by “and”; a condition that tells them apart may be missing. Equal values may be shown once. Inconclusive results and toxic doses are left out. Rule for the calls: active = survival T/C of 150% or more; inactive = T/C below 125% in these data.

Tested on: CD2F1 mice, L1210 leukemia ip, survival T/C
Assay: NCI In Vivo Anticancer Drug Screen. Data for tumor model L1210 Leukemia (intraperitoneal) in CD2F1 (CDF1) mice
Conditions: higher = longer survival
Method in brief: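 Read-out first: treated-group measurement over vehicle-control measurement, expressed as a ratio. Animals bore a transplanted tumor line and were dosed with compound or vehicle.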

[1] = endpoint: mean survival time, dose: 100.0 mg/kg/injection, schedule: Q01DX009 (ip), vehicle: saline with Tween-80
[2] = endpoint: mean survival time, dose: 100.0 mg/kg/injection, schedule: Q01DX009 (ip), vehicle: saline

Measured: T/C

CCCC(=O)Oc1ccc(/C=N/NC(N)=S)nc1
active: [1] 182 % of control | endpoint: mean survival time, dose: 900.0 mg/kg/injection, schedule: Q01DX001 (ip), vehicle: saline with Tween-80 161 % of control | endpoint: median survival time, dose: 36.0 mg/kg/injection, schedule: Q01DX005 (ip), vehicle: saline with Tween-80 151 % of control | endpoint: median survival time, dose: 50.0 mg/kg/injection, schedule: Q01DX009 (ip), vehicle: saline with Tween-80 172 % of control | endpoint: median survival time, dose: 60.0 mg/kg/injection, schedule: Q01DX005 (ip), vehicle: saline with Tween-80 160 % of control | endpoint: median survival time, dose: 100.0 mg/kg/injection, schedule: Q01DX005 (ip), vehicle: saline with Tween-80 162 % of control | endpoint: median survival time, dose: 100.0 mg/kg/injection, schedule: Q01DX009 (ip), vehicle: saline with Tween-80 156 % of control and 247 % of control | endpoint: median survival time, dose: 200.0 mg/kg/injection, schedule: Q01DX009 (ip), vehicle: saline with Tween-80 164 % of control and 190 % of control
inactive: endpoint: mean survival time, dose: 100.0 mg/kg/injection, schedule: Q04DX002 (ip), vehicle: saline with Tween-80 115 % of control | endpoint: mean survival time, dose: 178.0 mg/kg/injection, schedule: Q01DX001 (ip), vehicle: saline with Tween-80 116 % of control | endpoint: mean survival time, dose: 178.0 mg/kg/injection, schedule: Q04DX003 (ip), vehicle: saline with Tween-80 118 % of control | endpoint: mean survival time, dose: 200.0 mg/kg/injection, schedule: Q01DX009 (ip), vehicle: saline with Tween-80 119 % of control | endpoint: mean survival time, dose: 266.0 mg/kg/injection, schedule: Q01DX001 (ip), vehicle: saline with Tween-80 113 % of control | endpoint: mean survival time, dose: 266.0 mg/kg/injection, schedule: Q04DX003 (ip), vehicle: saline with Tween-80 121 % of control | endpoint: mean survival time, dose: 400.0 mg/kg/injection, schedule: Q01DX001 (ip), vehicle: saline with Tween-80 95 % of control | endpoint: mean survival time, dose: 400.0 mg/kg/injection, schedule: Q04DX003 (ip), vehicle: saline with Tween-80 117 % of control | endpoint: mean survival time, dose: 600.0 mg/kg/injection, schedule: Q01DX001 (ip), vehicle: saline with Tween-80 124 % of control | endpoint: median survival time, dose: 166.67 mg/kg/injection, schedule: Q01DX005 (ip), vehicle: saline with Tween-80 112 % of control | endpoint: median survival time, dose: 400.0 mg/kg/injection, schedule: Q01DX009 (ip), vehicle: saline with Tween-80 113 % of control and 107 % of control

NC(=O)OCC(O)C(O)C(N)C(=O)NC(C(=O)O)C1OC(n2ccc(=O)[nH]c2=O)C(O)C1O (stereo not given)
inactive: endpoint: mean survival time, dose: 12.5 mg/kg/injection, schedule: Q01DX005 (ip), vehicle: water 96 % of control | endpoint: mean survival time, dose: 25.0 mg/kg/injection, schedule: Q01DX005 (ip), vehicle: water 103 % of control | endpoint: mean survival time, dose: 50.0 mg/kg/injection, schedule: Q01DX005 (ip), vehicle: water 98 % of control | endpoint: mean survival time, dose: 100.0 mg/kg/injection, schedule: Q01DX005 (ip), vehicle: water 101 % of control | endpoint: mean survival time, dose: 200.0 mg/kg/injection, schedule: Q01DX005 (ip), vehicle: water 94 % of control

CC(CN=Cc1ccccc1[NH-])N=Cc1ccccc1[NH-].[Ni+2] (stereo not given)
inactive: endpoint: mean survival time, dose: 6.25 mg/kg/injection, schedule: Q04DX002 (ip), vehicle: saline with Tween-80 94 % of control | endpoint: mean survival time, dose: 12.5 mg/kg/injection, schedule: Q04DX002 (ip), vehicle: saline with Tween-80 94 % of control | endpoint: mean survival time, dose: 25.0 mg/kg/injection, schedule: Q04DX002 (ip), vehicle: saline with Tween-80 97 % of control | endpoint: mean survival time, dose: 50.0 mg/kg/injection, schedule: Q04DX002 (ip), vehicle: saline with Tween-80 94 % of control and 109 % of control

Nc1nc(N)c2cc(CNc3ccc(C(=O)NC(CC(=O)O)CC(=O)O)cc3)cnc2n1
inactive: endpoint: mean survival time, dose: 50.0 mg/kg/injection, schedule: Q01DX009 (ip), vehicle: Klucel (hydroxypropylcellulose) (HPC) 94 % of control | endpoint: mean survival time, dose: 100.0 mg/kg/injection, schedule: Q01DX009 (ip), vehicle: Klucel (hydroxypropylcellulose) (HPC) 98 % of control

Nc1nc(N)c(CCCc2ccccc2)c(N)n1
inactive: endpoint: mean survival time, dose: 2.0 mg/kg/injection, schedule: Q04DX002 (ip), vehicle: Klucel (hydroxypropylcellulose) (HPC) 104 % of control | endpoint: mean survival time, dose: 4.0 mg/kg/injection, schedule: Q04DX002 (ip), vehicle: Klucel (hydroxypropylcellulose) (HPC) 101 % of control | endpoint: mean survival time, dose: 8.0 mg/kg/injection, schedule: Q04DX002 (ip), vehicle: Klucel (hydroxypropylcellulose) (HPC) 109 % of control | endpoint: mean survival time, dose: 16.0 mg/kg/injection, schedule: Q04DX002 (ip), vehicle: Klucel (hydroxypropylcellulose) (HPC) 98 % of control | endpoint: mean survival time, dose: 32.0 mg/kg/injection, schedule: Q04DX002 (ip), vehicle: Klucel (hydroxypropylcellulose) (HPC) 98 % of control | endpoint: mean survival time, dose: 64.0 mg/kg/injection, schedule: Q04DX002 (ip), vehicle: Klucel (hydroxypropylcellulose) (HPC) 98 % of control

CNc1ncnc2[nH]cc([N+](=O)[O-])c12
inactive: endpoint: mean survival time, dose: 75.0 mg/kg/injection, schedule: Q01DX001 (ip), vehicle: saline 96 % of control | endpoint: mean survival time, dose: 150.0 mg/kg/injection, schedule: Q01DX001 (ip), vehicle: saline 106 % of control | endpoint: mean survival time, dose: 300.0 mg/kg/injection, schedule: Q01DX001 (ip), vehicle: saline 106 % of control

C1CN(P2(N3CC3)=NP(N3CC3)(N3CC3)=NP(N3CC3)(N3CC3)=N2)CCO1 (stereo not given)
inactive: endpoint: mean survival time, dose: 6.25 mg/kg/injection, schedule: Q01DX009 (ip), vehicle: saline 120 % of control and 123 % of control and 109 % of control | endpoint: mean survival time, dose: 25.0 mg/kg/injection, schedule: Q01DX001 (ip), vehicle: saline 121 % of control | endpoint: mean survival time, dose: 50.0 mg/kg/injection, schedule: Q01DX001 (ip), vehicle: saline 119 % of control | [2] 98 % of control

SCc1nc2ccccc2[nH]1
inactive: endpoint: mean survival time, dose: 100.0 mg/kg/injection, schedule: Q01DX001 (ip), vehicle: saline with Tween-80 96 % of control | endpoint: mean survival time, dose: 200.0 mg/kg/injection, schedule: Q01DX001 (ip), vehicle: saline with Tween-80 97 % of control

CC(Br)C(=O)OC1C=CCCC1 (stereo not given)
inactive: endpoint: mean survival time, dose: 50.0 mg/kg/injection, schedule: Q01DX009 (ip), vehicle: saline with Tween-80 97 % of control | [1] 101 % of control

O=C(O)C(O)C(O)C(OC1OC(CO)C(O)C(O)C1O)C(O)CO.O=C(O)C(O)C(O)C(OC1OC(CO)C(O)C(O)C1O)C(O)CO.[NH-]C1CCCCC1[NH-].[Pt+2] (stereo not given)
active: endpoint: median survival time, dose: 12.5 mg/kg/injection, schedule: Q04DX003 (ip), vehicle: saline 162 % of control | endpoint: median survival time, dose: 25.0 mg/kg/injection, schedule: Q04DX003 (ip), vehicle: saline 195 % of control | endpoint: median survival time, dose: 50.0 mg/kg/injection, schedule: Q04DX003 (ip), vehicle: saline 158 % of control and 365 % of control
inactive: endpoint: median survival time, dose: 3.12 mg/kg/injection, schedule: Q04DX003 (ip), vehicle: saline 113 % of control | endpoint: median survival time, dose: 6.25 mg/kg/injection, schedule: Q04DX003 (ip), vehicle: saline 121 % of control | endpoint: median survival time, dose: 200.0 mg/kg/injection, schedule: Q04DX003 (ip), vehicle: saline 119 % of control

OCCN1CCN(CCCN2c3ccccc3Sc3ccc(C(F)(F)F)cc32)CC1
inactive: endpoint: mean survival time, dose: 1.49 mg/kg/injection, schedule: Q01DX009 (ip), vehicle: saline 110 % of control | endpoint: mean survival time, dose: 2.27 mg/kg/injection, schedule: Q01DX009 (ip), vehicle: saline 113 % of control | endpoint: mean survival time, dose: 3.4 mg/kg/injection, schedule: Q01DX009 (ip), vehicle: saline 121 % of control | endpoint: mean survival time, dose: 5.0 mg/kg/injection, schedule: Q04DX003 (ip), vehicle: saline 116 % of control | endpoint: mean survival time, dose: 6.6 mg/kg/injection, schedule: Q04DX003 (ip), vehicle: saline sonified 100 % of control | endpoint: mean survival time, dose: 6.6 mg/kg/injection, schedule: Q04DX003 (ip), vehicle: saline 108 % of control | endpoint: mean survival time, dose: 10.0 mg/kg/injection, schedule: Q04DX003 (ip), vehicle: saline sonified 101 % of control | endpoint: mean survival time, dose: 10.0 mg/kg/injection, schedule: Q04DX003 (ip), vehicle: saline 116 % of control | endpoint: mean survival time, dose: 15.0 mg/kg/injection, schedule: Q04DX003 (ip), vehicle: saline 114 % of control and 94 % of control | endpoint: mean survival time, dose: 20.0 mg/kg/injection, schedule: Q04DX003 (ip), vehicle: saline 106 % of control | endpoint: mean survival time, dose: 30.0 mg/kg/injection, schedule: Q04DX003 (ip), vehicle: saline 75 % of control

CCc1c2cc(OC)c(OC)cc2cc2c3cc(OC)c(OC)cc3cc[n+]12 (tested in a mixture with another compound)
inactive: endpoint: mean survival time, dose: 14.6 mg/kg/injection, schedule: Q01DX009 (ip), vehicle: saline with Tween-80 120 % of control | endpoint: mean survival time, dose: 33.0 mg/kg/injection, schedule: Q01DX009 (ip), vehicle: saline with Tween-80 117 % of control | endpoint: mean survival time, dose: 50.0 mg/kg/injection, schedule: Q01DX009 (ip), vehicle: saline 122 % of control | endpoint: mean survival time, dose: 50.0 mg/kg/injection, schedule: Q04DX003 (ip), vehicle: saline 122 % of control | [2] 104 % of control | endpoint: mean survival time, dose: 100.0 mg/kg/injection, schedule: Q04DX003 (ip), vehicle: saline 121 % of control and 123 % of control | endpoint: mean survival time, dose: 200.0 mg/kg/injection, schedule: Q04DX003 (ip), vehicle: saline 101 % of control | endpoint: mean survival time, dose: 400.0 mg/kg/injection, schedule: Q04DX003 (ip), vehicle: saline 121 % of control and 98 % of control

NCCN1c2ccccc2Sc2ccccc21
inactive: endpoint: mean survival time, dose: 12.5 mg/kg/injection, schedule: Q01DX009 (ip), vehicle: other 105 % of control | endpoint: mean survival time, dose: 25.0 mg/kg/injection, schedule: Q01DX009 (ip), vehicle: other 98 % of control | endpoint: mean survival time, dose: 50.0 mg/kg/injection, schedule: Q01DX009 (ip), vehicle: other 113 % of control
